Reference: ChEMBL document CHEMBL2034879, “Discovery of SCH 900271, a Potent Nicotinic Acid Receptor Agonist for the Treatment of Dyslipidemia” (ACS Med Chem Lett, 2012)
pEC50, pIC50: −log10 of the molar value. The source made the active and inactive calls. The rule behind the calls is not given here.

Experiments:
[1] = molecular target: Hydroxycarboxylic acid receptor 3 (Homo sapiens, UniProt P49019); assay: Agonist activity at human GPR109b; type: functional
[2] = molecular target: Hydroxycarboxylic acid receptor 2 (Rattus norvegicus, UniProt Q80Z39); assay: Agonist activity at rat GPR109a; type: functional
Chain of Hydroxycarboxylic acid receptor 2 (Rattus norvegicus, UniProt Q80Z39) (Q80Z39 whole entry): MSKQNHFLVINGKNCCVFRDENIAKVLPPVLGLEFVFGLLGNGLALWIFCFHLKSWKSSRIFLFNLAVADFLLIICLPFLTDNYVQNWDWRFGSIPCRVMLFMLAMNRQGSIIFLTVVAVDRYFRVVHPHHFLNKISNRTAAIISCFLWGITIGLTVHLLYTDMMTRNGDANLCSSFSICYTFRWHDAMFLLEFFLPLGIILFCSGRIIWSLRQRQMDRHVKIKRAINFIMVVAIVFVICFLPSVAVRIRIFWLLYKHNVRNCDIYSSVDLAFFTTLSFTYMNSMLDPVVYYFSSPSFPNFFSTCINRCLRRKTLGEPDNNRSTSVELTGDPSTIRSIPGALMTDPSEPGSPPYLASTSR

[3] = Agonist activity at dog GPR109a; type: functional, Canis lupus familiaris
Rattus norvegicus [4] = assay: Antidyslipidemic activity in fasted Sprague-Dawley rat assessed as reduction in free fatty acid level in plasma at 1 mg/kg, po after 1 hr relative to vehicle-treated control; type: functional; design: scale not given: the % may be the effect or the level left
Rattus norvegicus [5] = assay: Antidyslipidemic activity in fasted Sprague-Dawley rat assessed as reduction in triglyceride level in plasma at 1 mg/kg, po after 1 hr relative to vehicle-treated control; type: functional; design: scale not given: the % may be the effect or the level left
Canis familiaris [6] = assay: Antidyslipidemic activity in fasted beagle dog assessed as reduction in free fatty acid level in plasma at 2 mg/kg, po after 1 hr relative to vehicle-treated control; type: functional, Canis lupus familiaris; design: scale not given: the % may be the effect or the level left
Mus musculus [7] = assay: Nephrotoxicity in CD1 mouse assessed as increase in serum blood urea nitrogen level at 100 mg/kg; type: toxicity, organism-based; design: dose 100 mg/kg; details: in vivo
Mus musculus [8] = assay: Nephrotoxicity in CD1 mouse assessed as increase in creatinine level at 100 mg/kg; type: toxicity, organism-based; design: dose 100 mg/kg; details: in vivo
Rattus norvegicus [9] = species on record: Rattus norvegicus; assay: Nephrotoxicity in rat assessed as increase in serum blood urea nitrogen level; type: toxicity, organism-based; details: in vivo
Rattus norvegicus [10] = species on record: Rattus norvegicus; assay: Nephrotoxicity in rat assessed as increase in creatinine level; type: toxicity, organism-based; details: in vivo
[11] = molecular target: Hydroxycarboxylic acid receptor 2 (Mus musculus, UniProt Q9EP66); assay: Agonist activity at mouse GPR109a; type: functional
Chain of Hydroxycarboxylic acid receptor 2 (Mus musculus, UniProt Q9EP66) (Q9EP66 whole entry): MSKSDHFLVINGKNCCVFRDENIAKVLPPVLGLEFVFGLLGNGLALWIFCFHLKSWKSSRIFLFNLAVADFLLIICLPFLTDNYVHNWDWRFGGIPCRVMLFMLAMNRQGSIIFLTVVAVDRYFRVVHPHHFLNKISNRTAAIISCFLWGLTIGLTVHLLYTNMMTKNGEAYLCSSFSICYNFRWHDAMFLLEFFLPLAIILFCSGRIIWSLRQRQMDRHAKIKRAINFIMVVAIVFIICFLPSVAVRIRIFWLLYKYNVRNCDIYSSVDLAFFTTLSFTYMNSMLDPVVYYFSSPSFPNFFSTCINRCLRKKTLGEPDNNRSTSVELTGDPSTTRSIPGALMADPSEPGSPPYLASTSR

Canis familiaris [12] = assay: Antidyslipidemic activity in fasted beagle dog assessed as reduction in free fatty acid level in plasma at 0.3 mg/kg, po after 1 hr relative to vehicle-treated control; type: functional, Canis lupus familiaris; design: scale not given: the % may be the effect or the level left
Canis familiaris [13] = assay: Antidyslipidemic activity in po dosed fasted beagle dog assessed as reduction in free fatty acid level in plasma relative to vehicle-treated control; type: functional, organism-based; details: Canis lupus familiaris
Mus musculus [14] = species on record: Mus musculus; assay: Nephrotoxicity in CD1 mouse assessed as acute renal necrosis; type: toxicity, organism-based; details: in vivo
Canis familiaris [15] = assay: Antidyslipidemic activity in fasted beagle dog assessed as reduction in free fatty acid level in plasma at 1 mg/kg, po after 1 hr relative to vehicle-treated control; type: functional, Canis lupus familiaris; design: scale not given: the % may be the effect or the level left
[16] = AUC (0 to 24 hrs) in Sprague-Dawley rat at 5 mg/kg, po; type: ADME, organism-based; design: time < 24 hr, dose 5 mg/kg, route oral; details: plasma
[17] = Oral bioavailability in Sprague-Dawley rat at 5 mg/kg; type: ADME, organism-based; details: in vivo
Rattus norvegicus [18] = assay: Antidyslipidemic activity in po dosed fasted Sprague-Dawley rat assessed as reduction in free fatty acid level in plasma; type: functional; details: for minimal effective dose: read-out: MED
Rattus norvegicus [19] = assay: Antidyslipidemic activity in po dosed fasted Sprague-Dawley rat assessed as reduction in triglyceride level in plasma; type: functional
Rattus norvegicus [20] = assay: Antidyslipidemic activity in fasted Sprague-Dawley rat assessed as reduction in free fatty acid level in plasma at 3 mg/kg, po up to 2 hrs; type: functional, organism-based; design: dose 3 mg/kg
Rattus norvegicus [21] = assay: Antidyslipidemic activity in fasted Sprague-Dawley rat assessed as reduction in free fatty acid level in plasma at 3 mg/kg, po after 2 hrs; type: functional, organism-based; design: dose 3 mg/kg
Canis familiaris [22] = assay: Toxicity in fasted beagle dog assessed as flushing at 1 to 10 mg/kg, po; type: organism-based, Canis lupus familiaris; design: dose 1-10 mg/kg, route oral; details: in vivo
Canis familiaris [23] = assay: Toxicity in fasted beagle dog assessed as change in skin colour at 1 to 10 mg/kg, po; type: organism-based, Canis lupus familiaris; design: dose 1-10 mg/kg, route oral; details: in vivo
Canis familiaris [24] = assay: Toxicity in fasted beagle dog assessed as behavioural changes at 1 to 10 mg/kg, po; type: organism-based, Canis lupus familiaris; design: dose 1-10 mg/kg, route oral; details: in vivo
Canis familiaris [25] = assay: Toxicity in fasted beagle dog assessed as increase in cutaneous blood flow at 30 mg/kg, po relative to control; type: organism-based, Canis lupus familiaris; design: dose 30 mg/kg, route oral; details: in vivo
Canis familiaris [26] = assay: Toxicity in fasted beagle dog assessed as behavioural changes at 30 mg/kg, po relative to control; type: organism-based, Canis lupus familiaris; design: dose 30 mg/kg, route oral; details: in vivo
Mus musculus [27] = assay: Nephrotoxicity in CD1 mouse at 100 mg/kg, po administered qd for 5 days measured 2 hrs post-last dose; type: toxicity, organism-based; design: dose 100 mg/kg, route oral; details: in vivo
[28] = AUC (0 to 24 hrs) in beagle dog at 1 mg/kg, po; type: ADME, organism-based, Canis lupus familiaris; design: time < 24 hr, dose 1 mg/kg, route oral; details: plasma
[29] = Oral bioavailability in beagle dog at 1 mg/kg; type: ADME, organism-based, Canis lupus familiaris; details: in vivo
[30] = molecular target: Voltage-gated inwardly rectifying potassium channel KCNH2 (Homo sapiens, UniProt Q12809); assay: Inhibition of human ERG up to 10 uM by patch clamp assay
Chain of Voltage-gated inwardly rectifying potassium channel KCNH2 (Q12809 whole entry): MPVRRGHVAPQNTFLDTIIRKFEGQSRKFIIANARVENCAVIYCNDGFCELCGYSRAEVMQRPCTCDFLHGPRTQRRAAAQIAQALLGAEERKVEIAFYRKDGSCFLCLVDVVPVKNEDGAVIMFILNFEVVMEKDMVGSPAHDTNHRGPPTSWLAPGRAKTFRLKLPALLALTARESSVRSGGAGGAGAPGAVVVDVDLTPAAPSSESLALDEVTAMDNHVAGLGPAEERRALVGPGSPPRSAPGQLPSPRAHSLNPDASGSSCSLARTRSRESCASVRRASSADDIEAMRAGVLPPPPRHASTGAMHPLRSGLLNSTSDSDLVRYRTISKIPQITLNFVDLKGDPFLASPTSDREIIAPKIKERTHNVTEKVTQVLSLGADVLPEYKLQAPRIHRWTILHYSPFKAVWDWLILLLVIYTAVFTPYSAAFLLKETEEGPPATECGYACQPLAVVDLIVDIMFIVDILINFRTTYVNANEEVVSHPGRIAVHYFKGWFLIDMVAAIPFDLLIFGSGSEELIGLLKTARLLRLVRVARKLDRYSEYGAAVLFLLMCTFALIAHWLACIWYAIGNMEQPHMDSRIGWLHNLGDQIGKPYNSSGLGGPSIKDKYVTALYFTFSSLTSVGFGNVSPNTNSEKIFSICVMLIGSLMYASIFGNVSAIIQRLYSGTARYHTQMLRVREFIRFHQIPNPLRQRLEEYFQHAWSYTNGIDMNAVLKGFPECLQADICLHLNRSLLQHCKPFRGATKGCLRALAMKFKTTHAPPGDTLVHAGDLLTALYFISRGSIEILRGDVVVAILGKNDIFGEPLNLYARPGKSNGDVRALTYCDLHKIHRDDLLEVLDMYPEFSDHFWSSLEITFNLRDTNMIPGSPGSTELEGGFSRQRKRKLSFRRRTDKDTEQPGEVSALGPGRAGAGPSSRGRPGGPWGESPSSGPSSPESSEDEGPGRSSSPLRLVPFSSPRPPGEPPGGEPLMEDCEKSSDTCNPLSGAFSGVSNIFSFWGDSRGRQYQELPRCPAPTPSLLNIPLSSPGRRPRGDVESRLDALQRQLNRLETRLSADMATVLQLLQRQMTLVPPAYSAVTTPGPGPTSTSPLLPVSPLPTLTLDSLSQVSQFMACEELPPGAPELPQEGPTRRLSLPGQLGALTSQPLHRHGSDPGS

Cytochrome P450 1A2 = molecular target: T1, Cytochrome P450 1A2 (Homo sapiens, UniProt P05177); assay: Inhibition of human CYP1A2; type: ADME
T1 sequence (P05177 whole entry): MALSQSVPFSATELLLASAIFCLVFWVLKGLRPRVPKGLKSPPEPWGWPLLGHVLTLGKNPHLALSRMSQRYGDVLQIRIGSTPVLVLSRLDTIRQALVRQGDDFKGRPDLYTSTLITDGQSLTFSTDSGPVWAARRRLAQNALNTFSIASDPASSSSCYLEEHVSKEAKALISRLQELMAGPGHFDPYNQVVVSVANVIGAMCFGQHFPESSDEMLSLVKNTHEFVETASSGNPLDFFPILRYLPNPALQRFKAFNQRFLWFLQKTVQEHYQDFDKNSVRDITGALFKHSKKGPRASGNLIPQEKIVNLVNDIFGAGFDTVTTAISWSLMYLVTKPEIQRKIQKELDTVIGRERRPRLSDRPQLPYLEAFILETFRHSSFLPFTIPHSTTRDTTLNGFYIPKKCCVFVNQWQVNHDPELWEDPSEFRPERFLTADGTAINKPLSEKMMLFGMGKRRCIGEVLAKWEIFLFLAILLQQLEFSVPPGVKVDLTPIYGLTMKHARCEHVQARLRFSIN

Cytochrome P450 2C9 = Cytochrome P450 2C9 (Homo sapiens, UniProt P11712); assay: Inhibition of human CYP2C9; type: ADME
Chain of Cytochrome P450 2C9 (P11712 whole entry): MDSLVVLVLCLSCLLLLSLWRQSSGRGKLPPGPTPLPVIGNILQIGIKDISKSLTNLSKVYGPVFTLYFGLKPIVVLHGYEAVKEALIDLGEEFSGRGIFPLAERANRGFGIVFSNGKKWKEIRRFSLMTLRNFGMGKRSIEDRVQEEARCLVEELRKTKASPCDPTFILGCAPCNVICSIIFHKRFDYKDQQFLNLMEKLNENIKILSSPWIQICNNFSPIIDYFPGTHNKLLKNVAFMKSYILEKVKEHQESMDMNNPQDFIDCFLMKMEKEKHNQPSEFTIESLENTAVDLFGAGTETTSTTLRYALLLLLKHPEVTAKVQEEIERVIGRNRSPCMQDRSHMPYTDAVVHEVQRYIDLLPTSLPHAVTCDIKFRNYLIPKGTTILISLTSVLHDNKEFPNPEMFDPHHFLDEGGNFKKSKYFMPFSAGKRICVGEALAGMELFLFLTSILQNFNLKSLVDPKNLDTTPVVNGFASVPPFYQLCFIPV

Cytochrome P450 2D6 = Cytochrome P450 2D6 (Homo sapiens, UniProt P10635); assay: Inhibition of human CYP2D6; type: ADME
Chain of Cytochrome P450 2D6 (P10635 whole entry): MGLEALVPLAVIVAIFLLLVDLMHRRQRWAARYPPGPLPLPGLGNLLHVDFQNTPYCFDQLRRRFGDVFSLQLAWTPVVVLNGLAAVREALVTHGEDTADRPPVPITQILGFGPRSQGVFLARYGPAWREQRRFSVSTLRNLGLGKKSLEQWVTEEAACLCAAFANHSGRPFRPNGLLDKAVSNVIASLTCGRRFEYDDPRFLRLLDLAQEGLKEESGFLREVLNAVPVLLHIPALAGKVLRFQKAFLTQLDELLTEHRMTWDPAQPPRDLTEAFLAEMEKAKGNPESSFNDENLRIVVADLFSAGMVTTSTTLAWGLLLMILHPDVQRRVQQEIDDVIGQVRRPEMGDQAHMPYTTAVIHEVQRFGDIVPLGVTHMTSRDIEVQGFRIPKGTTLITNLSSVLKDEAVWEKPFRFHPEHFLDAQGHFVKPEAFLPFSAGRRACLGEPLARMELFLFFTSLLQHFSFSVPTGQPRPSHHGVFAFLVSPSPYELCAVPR

Cytochrome P450 3A4 = Cytochrome P450 3A4 (Homo sapiens, UniProt P08684); assay: Inhibition of human CYP3A4; type: ADME
Chain of Cytochrome P450 3A4 (P08684 whole entry): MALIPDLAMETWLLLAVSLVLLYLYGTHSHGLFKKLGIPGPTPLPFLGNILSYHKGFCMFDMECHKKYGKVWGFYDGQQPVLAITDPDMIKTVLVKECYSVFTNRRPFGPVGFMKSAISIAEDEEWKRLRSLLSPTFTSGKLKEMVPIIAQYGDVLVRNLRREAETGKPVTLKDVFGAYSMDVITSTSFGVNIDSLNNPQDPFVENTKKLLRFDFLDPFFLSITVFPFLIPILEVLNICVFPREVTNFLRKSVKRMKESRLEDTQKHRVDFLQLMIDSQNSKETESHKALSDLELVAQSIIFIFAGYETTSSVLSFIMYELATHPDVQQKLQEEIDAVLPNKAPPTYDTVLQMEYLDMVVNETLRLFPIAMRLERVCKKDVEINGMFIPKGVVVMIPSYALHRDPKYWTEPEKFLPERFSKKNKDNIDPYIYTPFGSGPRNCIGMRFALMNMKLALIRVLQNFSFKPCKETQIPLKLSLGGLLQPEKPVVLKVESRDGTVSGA

Liver microsomes [31] = assay: Intrinsic clearance in human liver microsomes assessed per 10^6 cells; type: ADME, Microsome
Liver microsomes [32] = assay: Intrinsic clearance in rat liver microsomes assessed per 10^6 cells; type: ADME, Microsome
Liver [33] = assay: Intrinsic clearance in dog liver microsomes assessed per 10^6 cells; type: ADME, Canis lupus familiaris, Microsome
Liver [34] = assay: Intrinsic clearance in mouse liver microsomes assessed per 10^6 cells; type: ADME, Microsome
Canis familiaris [35] = assay: Antidyslipidemic activity in fasted beagle dog assessed as reduction in free fatty acid level in plasma at 3 mg/kg, po after 1 hr relative to vehicle-treated control; type: functional, Canis lupus familiaris; design: scale not given: the % may be the effect or the level left
Canis familiaris [36] = assay: Antidyslipidemic activity in po dosed fasted beagle dog assessed as reduction in free fatty acid level in plasma after 4 hr relative to vehicle-treated control; type: functional, organism-based; details: Canis lupus familiaris
Canis familiaris [37] = assay: Toxicity in beagle dog assessed as flushing at 3 mg/kg, po; type: organism-based, Canis lupus familiaris; design: dose 3 mg/kg, route oral; details: in vivo
Rattus norvegicus [38] = assay: Antidyslipidemic activity in fasted Sprague-Dawley rat assessed as reduction in free fatty acid level in plasma at 3 mg/kg, po after 1 hr relative to vehicle-treated control; type: functional; design: scale not given: the % may be the effect or the level left
Rattus norvegicus [39] = assay: Antidyslipidemic activity in fasted Sprague-Dawley rat assessed as reduction in triglyceride level in plasma at 3 mg/kg, po after 1 hr relative to vehicle-treated control; type: functional; design: scale not given: the % may be the effect or the level left

Chain of Hydroxycarboxylic acid receptor 3 (P49019 whole entry): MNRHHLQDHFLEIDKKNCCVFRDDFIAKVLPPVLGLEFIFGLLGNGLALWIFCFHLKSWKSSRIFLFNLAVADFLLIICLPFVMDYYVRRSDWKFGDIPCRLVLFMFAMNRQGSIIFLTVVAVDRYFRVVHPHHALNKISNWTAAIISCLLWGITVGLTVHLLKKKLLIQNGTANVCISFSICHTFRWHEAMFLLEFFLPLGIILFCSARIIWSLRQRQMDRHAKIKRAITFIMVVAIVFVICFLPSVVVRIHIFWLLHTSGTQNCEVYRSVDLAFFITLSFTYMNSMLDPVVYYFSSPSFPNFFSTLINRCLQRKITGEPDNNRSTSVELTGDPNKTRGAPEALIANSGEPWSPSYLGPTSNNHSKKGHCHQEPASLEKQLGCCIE

## O=c1[nH]c(=O)c2c(CCCC3CC3)cc(=O)oc2[nH]1
[1]
  pEC50: 6.85
[2]
  pEC50: 8.70
[3]
  pEC50: 9.00
Rattus norvegicus [4]
  Activity: 58%
Rattus norvegicus [5]
  Activity: 49%
Canis familiaris [6]
  Activity: 80%
Mus musculus [7]
  Activity: Toxic
Mus musculus [8]
  Activity: Toxic
Rattus norvegicus [9]
  Activity: Non-toxic
Rattus norvegicus [10]
  Activity: Non-toxic

## CCCCc1cc(=O)oc2[nH]c(=O)[nH]c(=O)c12
[1]
  pEC50: 6.72
[2]
  pEC50: 8.10
[11]
  pEC50: 7.92
[3]
  pEC50: 7.80
Rattus norvegicus [4]
  Activity: 29%
Rattus norvegicus [5]
  Activity: 40%
Canis familiaris [12]
  Activity: 90%
Canis familiaris [13]
  Activity: Dose-dependent effect
Mus musculus [14]
  Activity: Toxic
Mus musculus [7]
  Activity: Toxic
Mus musculus [8]
  Activity: Toxic
Rattus norvegicus [9]
  Activity: Non-toxic
Rattus norvegicus [10]
  Activity: Non-toxic

## CC1(CCCc2cc(=O)oc3[nH]c(=O)[nH]c(=O)c23)CC1 [SCH-900271]
[1]
  pEC50: 7.02
[2]
  pEC50: 8.10
[11]
  pEC50: 8.22
[3]
  pEC50: 8.30
Rattus norvegicus [4]
  Activity: 53%
Rattus norvegicus [5]
  Activity: 53%
Canis familiaris [15]
  Activity: 50%
[16]
  AUC(0-t) at 24 h: 7.6 µM·h
[17]
  bioavailability: 76%
Rattus norvegicus [18]
  Activity: Dose-dependent effect
  ED50: 0.5 mg/kg
  minimal effective dose: 3 mg/kg
Rattus norvegicus [19]
  Activity: Dose-dependent effect
  ED50: 0.5 mg/kg
Rattus norvegicus [19]; read-out: MED
  minimal effective dose: 3 mg/kg
Rattus norvegicus [20]
  Activity: Active
Rattus norvegicus [21]
  Activity: inactive
Canis familiaris [22]
  Activity: Non-toxic
Canis familiaris [23]
  Activity: Non-toxic
Canis familiaris [24]
  Activity: Non-toxic
Canis familiaris [25]
  fold change (FC): 5
Canis familiaris [26]
  Activity: Non-toxic
Mus musculus [27]
  Activity: Non-toxic
[28]
  AUC(0-t) at 24 h: 7.2 µM·h
[29]
  bioavailability: 40%
[30]
  inhibition (INH): Not Active
Cytochrome P450 1A2
  pIC50: < 4.30
Cytochrome P450 2C9
  pIC50: < 4.30
Cytochrome P450 2D6
  pIC50: < 4.30
Cytochrome P450 3A4
  pIC50: < 4.30
Liver microsomes [31]
  CLH: 1.6 µL/min
Liver microsomes [32]
  CLH: 10 µL/min
Liver [33]
  CLH: < 1 µL/min
Liver [34]
  CLH: 8.7 µL/min

## O=c1[nH]c(=O)c2c(CCCC(F)F)cc(=O)oc2[nH]1
[1]
  pEC50: 7.23
[2]
  pEC50: 8.70
[11]
  pEC50: 8.30
Rattus norvegicus [5]
  Activity: 59%
Canis familiaris [35]
  Activity: 80%
Canis familiaris [36]
  Activity: inactive
Canis familiaris [37]
  Activity: Toxic

## O=c1[nH]c(=O)c2c(CCC3CCC3)cc(=O)oc2[nH]1
[1]
  pEC50: 7.17
[2]
  pEC50: 8.30
[11]
  pEC50: 8.40
Rattus norvegicus [4]
  Activity: 50%
Rattus norvegicus [5]
  Activity: 31%
Mus musculus [7]
  Activity: Toxic
Mus musculus [8]
  Activity: Toxic
Rattus norvegicus [9]
  Activity: Non-toxic
Rattus norvegicus [10]
  Activity: Non-toxic

## CC(C)CCc1cc(=O)oc2[nH]c(=O)[nH]c(=O)c12
[1]
  pEC50: 5.89
Rattus norvegicus [38]
  Activity: 15%
Rattus norvegicus [39]
  Activity: 16%

## O=C(O)c1cccnc1 [NIACIN]
[1]
  pEC50: < 5.00
[3]
  pEC50: 7.51
Canis familiaris [35]
  Activity: 38%
Rattus norvegicus [18]
  minimal effective dose: 10 mg/kg
